Laboratory results: patent US11046743B2 (Antaros Medical AB, priority 2015, dated 2021)

Assay: Chemical stability in buffer, UPLC purity
Format: physicochemical

## Tza-S-Q-G-T-F-T-S-D-I-S-K-Q-Nle-ESRRAQEFIEWLLATGPESGAPPPSC(VS-DO3A(Ga))-NH2 [SEQ ID NO 36]
pH 4.6, 4° C.
  Purity after 7 days: 100%
  Purity after 14 days: 99%
pH 4.6, 25° C.
  Purity after 7 days: 99%
  Purity after 14 days: 97%
pH 4.6, 40° C.
  Purity after 7 days: 94%
  Purity after 14 days: 84%
pH 7.4, 4° C.
  Purity after 7 days: 97%
  Purity after 14 days: 94%
pH 7.4, 25° C.
  Purity after 7 days: 81%
  Purity after 14 days: 67%
pH 7.4, 40° C.
  Purity after 7 days: 47%
  Purity after 14 days: 33%

## Tza-S-Q-G-T-F-T-S-D-I-S-K-Q-Nle-ESRRAQEFIEWLLATGPESGAPPPSC(VS-DO3A)-NH2 [SEQ ID NO 35]
pH 4.6, 4° C.
  Purity after 7 days: 100%
  Purity after 14 days: 99%
pH 4.6, 25° C.
  Purity after 7 days: 97%
  Purity after 14 days: 97%
pH 4.6, 40° C.
  Purity after 7 days: 92%
  Purity after 14 days: 91%
pH 7.4, 4° C.
  Purity after 7 days: 98%
  Purity after 14 days: 96%
pH 7.4, 25° C.
  Purity after 7 days: 90%
  Purity after 14 days: 84%
pH 7.4, 40° C.
  Purity after 7 days: 64%
  Purity after 14 days: 53%

## Tza-SQGTFTSDYSKQLDEQRAQEFIEWLLATGPESGAPPPSC(VS-DO3A(Ga))-NH2 [SEQ ID NO 50]
pH 4.6, 4° C.
  Purity after 7 days: 100%
  Purity after 14 days: 99%
pH 4.6, 25° C.
  Purity after 7 days: 99%
  Purity after 14 days: 97%
pH 4.6, 40° C.
  Purity after 7 days: 94%
  Purity after 14 days: 84%
pH 7.4, 4° C.
  Purity after 7 days: 97%
  Purity after 14 days: 94%
pH 7.4, 25° C.
  Purity after 7 days: 81%
  Purity after 14 days: 67%
pH 7.4, 40° C.
  Purity after 7 days: 47%
  Purity after 14 days: 33%

## Tza-SQGTFTSDYSKQLDEQRAQEFIEWLLATGPESGAPPPSC(VS-DO3A)-NH2 [SEQ ID NO 49]
pH 4.6, 4° C.
  Purity after 7 days: 100%
  Purity after 14 days: 99%
pH 4.6, 25° C.
  Purity after 7 days: 97%
  Purity after 14 days: 97%
pH 4.6, 40° C.
  Purity after 7 days: 92%
  Purity after 14 days: 91%
pH 7.4, 4° C.
  Purity after 7 days: 98%
  Purity after 14 days: 96%
pH 7.4, 25° C.
  Purity after 7 days: 90%
  Purity after 14 days: 84%
pH 7.4, 40° C.
  Purity after 7 days: 64%
  Purity after 14 days: 53%

## Tza-SQGTFTSDYSKQLESRRAQEFIEWLLAGGPESGAPPPSC(VS-DO3A(Ga))-NH2 [SEQ ID NO 8]
pH 4.6, 4° C.
  Purity after 7 days: 100%
  Purity after 14 days: 99%
pH 4.6, 25° C.
  Purity after 7 days: 99%
  Purity after 14 days: 97%
pH 4.6, 40° C.
  Purity after 7 days: 94%
  Purity after 14 days: 84%
pH 7.4, 4° C.
  Purity after 7 days: 97%
  Purity after 14 days: 94%
pH 7.4, 25° C.
  Purity after 7 days: 81%
  Purity after 14 days: 67%
pH 7.4, 40° C.
  Purity after 7 days: 47%
  Purity after 14 days: 33%

## Tza-SQGTFTSDYSKQLESRRAQEFIEWLLAGGPESGAPPPSC(VS-DO3A)-NH2 [SEQ ID NO 6]
pH 4.6, 4° C.
  Purity after 7 days: 100%
  Purity after 14 days: 99%
pH 4.6, 25° C.
  Purity after 7 days: 97%
  Purity after 14 days: 97%
pH 4.6, 40° C.
  Purity after 7 days: 92%
  Purity after 14 days: 91%
pH 7.4, 4° C.
  Purity after 7 days: 98%
  Purity after 14 days: 96%
pH 7.4, 25° C.
  Purity after 7 days: 90%
  Purity after 14 days: 84%
pH 7.4, 40° C.
  Purity after 7 days: 64%
  Purity after 14 days: 53%
